Read-outs that look alike come from different tables or passages of the source. Each block holds one compound with its values, some of them ahead of it.
Experiments:
BCRP efflux transporter = BCRP efflux transporter (Homo sapiens (Human), UniProt Q9UNQ0); assay: Bi-directional transport study in Caco-2 cells, inhibition of BCRP efflux of 3H-estrone-3-sulfate
Protocol: To determine potency of compounds on inhibition of transporters, bi-directional transport studies are performed in Caco-2 cells (American Type Culture Collection, Manassas, Va.) at 37° C. in air, according toXia et al. (Expression, localization and functional characteristics of breast cancer resistance protein in Caco-2 cells. Drug Met. Disp., 33 (5): 637-643 (2005)). Prior to each experiment, the confluent cell monolayers on Transwell™ inserts are washed and equilibrated for 30 minutes with transport media (Hank's balanced salt solution (HBSS) containing 10 mM of N-2-hydroxyethyl-piperazine-N′-2-ethanesulfonic acid (HEPES) and 10 mM of glucose, pH 7.4). […] At preset time points, 0.05 mL aliquot of receiving solutions are sampled from the basolateral side (for A-to-B transport) or from the apical side (for B-to-A transport), and replaced immediately with an equal amount of fresh transport media except at the last time point (the end of the incubation). The radioactivity in each sample is measured by 1450 MicroBeta TriLux, a microplate scintillation and luminescence counter (PerkinElmer Life Sciences). Radioactivity (^3H) of the dosing solution is measured and used to calculate the initial donor concentration of the substrate.

CYP2C8 = CYP2C8 (Homo sapiens (Human), UniProt P10632); assay: CYP inhibition in human liver microsomes (amodiaquine); type: in vitro ADME; conditions: read-out: CYP inhibition IC50 2C8
Protocol: (§1) Reactions are initiated by the addition of β-NADPH (2 mM) and MgCl2 (3 mM) in 0.1-M potassium phosphate buffer, pH 7.4. Reactions are incubated for 12 minutes at 37° C., and then terminated by the addition of an equal volume of ACN containing 1-μM carbutamide (IS). The plates are refrigerated at approximately 4° C. for 15 minutes and then centrifuged in order to pellet the precipitated proteins. The supernatants are analyzed by LC/MS/MS for the amount of metabolite formed by each CYP isozyme.

[1] = In vivo pharmacokinetic profile in Sprague-Dawley rats
Protocol: Approximately 200 μL of whole blood is collected from the jugular vein catheter of each animal into tubes containing the anticoagulant dipotassium ethylenediaminetetraacetic acid (K2EDTA) and is further processed into plasma at approximately 4° C. […] Pharmacokinetic analysis of the individual plasma concentration data is performed using a nonvalidated program (Phoenix™ WinNonlin®, Version 6.1 [Pharsight Corp (Mountain View, Calif., USA)]).

CYP1A2 = CYP1A2 (Homo sapiens (Human), UniProt P05177); assay: CYP inhibition in human liver microsomes (phenacetin); type: in vitro ADME; conditions: read-out: CYP inhibition IC50 1A2
Protocol: as §1

CYP2D6 = CYP2D6 (Homo sapiens (Human), UniProt P10635); assay: CYP inhibition in human liver microsomes (dextromethorphan); type: in vitro ADME; conditions: read-out: CYP inhibition IC50 2D6
Protocol: as §1

CYP2C9 = CYP2C9 (Homo sapiens (Human), UniProt P11712); assay: CYP inhibition in human liver microsomes (diclofenac); type: in vitro ADME; conditions: read-out: CYP inhibition IC50 2C9
Protocol: as §1

CYP2C19 = CYP2C19 (Homo sapiens (Human), UniProt P33261); assay: CYP inhibition in human liver microsomes (S-mephenytoin); type: in vitro ADME; conditions: read-out: CYP inhibition IC50 2C19
Protocol: as §1

CYP3A4/5 = assay: CYP inhibition in human liver microsomes (midazolam); type: in vitro ADME; conditions: midazolam substrate, read-out: CYP inhibition IC50 3A-M
Protocol: as §1

P-gp transporter = P-gp transporter (Homo sapiens (Human), UniProt P08183); assay: Bi-directional transport study in Caco-2 cells, inhibition of P-gp efflux of 3H-digoxin; type: cell-based
[2] = read-out: IC50 on BCRP efflux transporter, Caco-2 cells, substrate 3H-Estrone-3-sulfate (26 nM)
[3] = Sprague-Dawley, rat, plasma, IV-JVC, 2 mg/kg
[4] = Sprague-Dawley, rat, plasma, PO-JVC, 20 mg/kg

Sequence of BCRP efflux transporter (Q9UNQ0 whole entry): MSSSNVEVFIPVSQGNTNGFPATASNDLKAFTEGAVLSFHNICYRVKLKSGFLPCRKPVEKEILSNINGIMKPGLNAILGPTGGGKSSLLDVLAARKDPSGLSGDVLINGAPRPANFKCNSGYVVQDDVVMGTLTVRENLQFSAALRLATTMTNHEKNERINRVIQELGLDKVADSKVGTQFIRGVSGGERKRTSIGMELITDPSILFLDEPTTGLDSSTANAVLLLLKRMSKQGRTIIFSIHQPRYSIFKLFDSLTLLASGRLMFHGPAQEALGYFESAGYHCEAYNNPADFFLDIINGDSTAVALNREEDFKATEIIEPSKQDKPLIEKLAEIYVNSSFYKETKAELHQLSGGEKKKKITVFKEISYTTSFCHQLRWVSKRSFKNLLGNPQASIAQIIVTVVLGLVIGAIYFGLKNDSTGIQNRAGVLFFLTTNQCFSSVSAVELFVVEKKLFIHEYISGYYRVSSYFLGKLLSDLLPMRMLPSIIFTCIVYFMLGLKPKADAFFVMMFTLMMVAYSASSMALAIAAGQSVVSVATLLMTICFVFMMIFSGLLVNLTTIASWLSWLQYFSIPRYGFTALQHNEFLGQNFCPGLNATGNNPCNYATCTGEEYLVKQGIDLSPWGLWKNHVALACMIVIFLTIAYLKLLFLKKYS
Sequence of CYP2C8 (P10632 whole entry): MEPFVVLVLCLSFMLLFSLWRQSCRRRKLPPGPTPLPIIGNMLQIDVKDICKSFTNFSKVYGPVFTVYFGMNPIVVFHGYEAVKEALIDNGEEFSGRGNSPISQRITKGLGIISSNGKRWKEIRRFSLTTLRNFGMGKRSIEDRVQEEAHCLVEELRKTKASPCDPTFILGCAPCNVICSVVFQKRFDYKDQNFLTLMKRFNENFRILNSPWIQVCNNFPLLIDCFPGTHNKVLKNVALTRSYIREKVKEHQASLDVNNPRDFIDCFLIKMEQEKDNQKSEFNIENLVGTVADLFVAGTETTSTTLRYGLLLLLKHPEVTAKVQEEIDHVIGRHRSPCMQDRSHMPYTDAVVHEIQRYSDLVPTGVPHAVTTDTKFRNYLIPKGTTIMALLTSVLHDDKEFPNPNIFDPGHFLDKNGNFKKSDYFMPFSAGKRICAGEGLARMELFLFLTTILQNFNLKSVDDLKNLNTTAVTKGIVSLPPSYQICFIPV
Sequence of CYP2C19 (P33261 whole entry): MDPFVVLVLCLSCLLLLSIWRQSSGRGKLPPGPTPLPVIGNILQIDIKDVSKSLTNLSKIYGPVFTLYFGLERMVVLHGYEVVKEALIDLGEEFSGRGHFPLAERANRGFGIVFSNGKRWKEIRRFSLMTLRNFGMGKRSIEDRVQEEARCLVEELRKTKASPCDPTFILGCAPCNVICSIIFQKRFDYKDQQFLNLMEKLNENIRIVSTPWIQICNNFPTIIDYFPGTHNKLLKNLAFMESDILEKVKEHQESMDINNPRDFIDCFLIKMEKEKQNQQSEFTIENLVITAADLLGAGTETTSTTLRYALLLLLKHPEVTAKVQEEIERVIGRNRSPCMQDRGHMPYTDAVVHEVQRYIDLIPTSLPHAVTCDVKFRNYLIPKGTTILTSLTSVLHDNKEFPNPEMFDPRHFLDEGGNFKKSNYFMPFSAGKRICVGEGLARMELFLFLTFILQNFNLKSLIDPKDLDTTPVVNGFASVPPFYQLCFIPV
Sequence of CYP2D6 (P10635 whole entry): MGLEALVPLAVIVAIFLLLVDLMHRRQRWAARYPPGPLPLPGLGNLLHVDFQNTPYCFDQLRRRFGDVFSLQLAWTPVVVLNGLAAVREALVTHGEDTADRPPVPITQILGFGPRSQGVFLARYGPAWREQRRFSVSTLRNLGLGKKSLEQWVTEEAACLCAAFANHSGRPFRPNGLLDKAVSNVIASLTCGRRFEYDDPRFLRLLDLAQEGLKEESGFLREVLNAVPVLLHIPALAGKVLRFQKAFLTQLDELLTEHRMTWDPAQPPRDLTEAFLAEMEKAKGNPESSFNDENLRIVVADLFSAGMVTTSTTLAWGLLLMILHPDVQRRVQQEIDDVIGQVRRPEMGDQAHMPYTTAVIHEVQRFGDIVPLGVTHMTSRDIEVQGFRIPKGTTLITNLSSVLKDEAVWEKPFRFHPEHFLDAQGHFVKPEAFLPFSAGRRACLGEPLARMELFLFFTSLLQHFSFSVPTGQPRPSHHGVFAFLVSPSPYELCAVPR
Sequence of P-gp transporter (P08183 whole entry): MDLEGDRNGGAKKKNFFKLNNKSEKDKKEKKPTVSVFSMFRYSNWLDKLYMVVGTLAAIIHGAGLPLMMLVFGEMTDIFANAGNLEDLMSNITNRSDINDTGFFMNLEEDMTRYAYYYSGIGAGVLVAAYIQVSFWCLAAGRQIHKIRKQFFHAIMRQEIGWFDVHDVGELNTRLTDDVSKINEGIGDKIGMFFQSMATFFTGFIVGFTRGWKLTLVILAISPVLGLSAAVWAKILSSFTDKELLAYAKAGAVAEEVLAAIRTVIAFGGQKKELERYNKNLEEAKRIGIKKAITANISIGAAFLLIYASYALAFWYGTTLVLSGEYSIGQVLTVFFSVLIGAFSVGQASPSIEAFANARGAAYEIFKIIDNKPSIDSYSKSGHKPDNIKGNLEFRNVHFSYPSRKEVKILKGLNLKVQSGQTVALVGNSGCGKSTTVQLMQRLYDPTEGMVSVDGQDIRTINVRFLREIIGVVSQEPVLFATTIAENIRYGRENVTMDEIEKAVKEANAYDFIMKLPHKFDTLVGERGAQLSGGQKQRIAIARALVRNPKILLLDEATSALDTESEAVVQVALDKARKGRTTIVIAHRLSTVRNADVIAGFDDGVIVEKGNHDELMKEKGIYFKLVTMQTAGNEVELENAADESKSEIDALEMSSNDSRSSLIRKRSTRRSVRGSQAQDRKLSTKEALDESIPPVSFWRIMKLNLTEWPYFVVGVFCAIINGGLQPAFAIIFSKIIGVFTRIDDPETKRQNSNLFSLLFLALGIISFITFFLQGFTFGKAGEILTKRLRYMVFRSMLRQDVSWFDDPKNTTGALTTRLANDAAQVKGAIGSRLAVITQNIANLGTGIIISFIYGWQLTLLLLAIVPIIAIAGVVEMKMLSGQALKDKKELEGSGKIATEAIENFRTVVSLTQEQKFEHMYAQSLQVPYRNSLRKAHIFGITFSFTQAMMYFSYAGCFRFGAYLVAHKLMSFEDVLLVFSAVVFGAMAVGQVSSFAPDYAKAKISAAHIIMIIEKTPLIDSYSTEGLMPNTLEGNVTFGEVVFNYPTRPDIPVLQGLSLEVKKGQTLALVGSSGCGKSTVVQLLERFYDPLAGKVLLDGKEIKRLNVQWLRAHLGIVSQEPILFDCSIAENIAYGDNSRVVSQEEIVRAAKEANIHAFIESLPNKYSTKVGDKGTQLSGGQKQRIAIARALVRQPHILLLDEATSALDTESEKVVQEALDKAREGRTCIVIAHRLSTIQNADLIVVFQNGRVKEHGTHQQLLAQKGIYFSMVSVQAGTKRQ
Sequence of CYP1A2 (P05177 whole entry): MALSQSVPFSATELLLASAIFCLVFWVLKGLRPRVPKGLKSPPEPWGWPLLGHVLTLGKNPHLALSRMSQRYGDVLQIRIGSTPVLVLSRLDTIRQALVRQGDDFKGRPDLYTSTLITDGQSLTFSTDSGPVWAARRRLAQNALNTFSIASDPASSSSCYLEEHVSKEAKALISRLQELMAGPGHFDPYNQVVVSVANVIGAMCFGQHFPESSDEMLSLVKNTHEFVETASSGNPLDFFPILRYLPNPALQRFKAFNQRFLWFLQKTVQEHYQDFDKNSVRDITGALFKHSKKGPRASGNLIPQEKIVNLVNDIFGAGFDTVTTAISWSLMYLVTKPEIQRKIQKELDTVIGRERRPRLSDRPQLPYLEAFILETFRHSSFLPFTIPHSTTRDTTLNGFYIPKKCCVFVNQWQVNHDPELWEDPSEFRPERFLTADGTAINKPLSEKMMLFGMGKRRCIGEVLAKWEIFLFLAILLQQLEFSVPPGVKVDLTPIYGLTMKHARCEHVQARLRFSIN
Sequence of CYP2C9 (P11712 whole entry): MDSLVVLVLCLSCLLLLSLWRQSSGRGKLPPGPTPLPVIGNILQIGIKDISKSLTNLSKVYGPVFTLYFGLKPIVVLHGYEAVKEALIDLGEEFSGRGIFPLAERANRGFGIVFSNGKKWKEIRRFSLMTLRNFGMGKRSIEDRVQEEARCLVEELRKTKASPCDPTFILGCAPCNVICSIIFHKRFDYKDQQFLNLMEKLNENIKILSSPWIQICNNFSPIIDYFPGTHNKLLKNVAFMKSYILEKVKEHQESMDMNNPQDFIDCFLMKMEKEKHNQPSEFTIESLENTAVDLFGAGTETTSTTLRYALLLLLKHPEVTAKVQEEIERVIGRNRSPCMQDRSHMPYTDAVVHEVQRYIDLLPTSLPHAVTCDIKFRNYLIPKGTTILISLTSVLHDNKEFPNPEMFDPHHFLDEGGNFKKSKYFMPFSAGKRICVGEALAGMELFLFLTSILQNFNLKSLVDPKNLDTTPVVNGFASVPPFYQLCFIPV

Compound: COc1cc2[nH]c3c(c2cc1OC)C[C@@H]1C(=O)N[C@@H](C)C(=O)N1[C@H]3CC(C)C [Compound 8A, (3S,6S,12aR)-6-isobutyl-9,10-dimethoxy-3-methyl-2,3,6,7,12,12a-hexahydropyrazino[1′,2′:1,6]pyrido[3,4-b]indole-1,4-dione]
- IC50 (BCRP efflux transporter): > 10 µM

- IC50 (BCRP efflux transporter; [2]): 1.98 µM
Compound: COc1cc2[nH]c3c(c2cc1C)C[C@H]1C(=O)N[C@@H](C)C(=O)N1[C@H]3CC(C)C [Compound 12, (3S,6S,12aS)-6-isobutyl-9-methoxy-3,10-dimethyl-2,3,6,7,12,12a-hexahydropyrazino[1′,2′:1,6]pyrido[3,4-b]indole-1,4-dione]

Compound: COc1cc2[nH]c3c(c2cc1OC)C[C@H]1C(=O)N[C@@H](C)C(=O)N1[C@H]3CC(C)C [Compound 8, (3S,6S,12aS)-6-isobutyl-9,10-dimethoxy-3-methyl-2,3,6,7,12,12a-hexahydropyrazino[1′,2′:1,6]pyrido[3,4-b]indole-1,4-dione]
- IC50 (BCRP efflux transporter; [2]): > 10 µM

Compound: COc1ccc2c3c([nH]c2c1)[C@H](CC(C)C)N1C(=O)[C@H](CCC(=O)OC(C)(C)C)NC(=O)[C@@H]1C3 [Ko143, reference compound]
- IC50 (CYP2C8): > 30 µM
- AUC0-24 hr ([1]; IV-JVC, 2 mg/kg): 0.0856 µM·h
- CL ([1]; IV-JVC, 2 mg/kg): 1100 mL/min/kg
- T1/2 ([1]; IV-JVC, 2 mg/kg): 0.2 h
- Vss ([1]; IV-JVC, 2 mg/kg): 14.8 L/kg
- AUC0-24 hr ([1]; PO-JVC, 50 mg/kg): 0.0722 µM·h
- Cmax ([1]; PO-JVC, 50 mg/kg): 0.0214 µM
- F % ([1]; PO-JVC, 50 mg/kg): 3%
- Tmax ([1]; PO-JVC, 50 mg/kg): 2 h
- IC50 (CYP1A2): 17.5 µM
- IC50 (CYP2D6): > 30 µM
- IC50 (CYP2C9): 6 µM
- IC50 (CYP2C19): 14.7 µM
- IC50 (CYP3A4/5): > 30 µM

- IC50 (BCRP efflux transporter; [2]): > 10 µM
Compound: COc1cc2[nH]c3c(c2cc1C)C[C@@H]1C(=O)N[C@@H](C)C(=O)N1[C@H]3CC(C)C [Compound 12A, (3S,6S,12aR)-6-isobutyl-9-methoxy-3,10-dimethyl-2,3,6,7,12,12a-hexahydropyrazino[1′,2′:1,6]pyrido[3,4-b]indole-1,4-dione]

Compound: CC(C)C[C@H]1c2[nH]c3ccccc3c2C[C@H]2C(=O)N[C@@H](CCC(=O)OC(C)(C)C)C(=O)N21 [Ko134, reference compound]
- IC50 (BCRP efflux transporter): 3.25 µM

- IC50 (CYP2C8): > 30 µM
- Bioavailability (in words) [1]: high bioavailability
- Clearance (in words) [1]: low clearance
- CL ([1]; IV-JVC, 2 mg/kg): 25.7 mL/min/kg
- Vss ([1]; IV-JVC, 2 mg/kg): 1.64 L/kg
- Tmax ([1]; PO-JVC, 20 mg/kg): 1.3 h
- AUC [1, 3]: 4 µM·h
- half-life [1, 3]: 0.9 h
- AUC [1, 4]: 49 µM·h
- Cmax [1, 4]: 10.1 µM
- bioavailability [1, 4]: 123%
- half-life [1, 4]: 2 h
- IC50 (P-gp transporter; Caco-2 cells, substrate 3H-digoxin): > 30 µM
- Selectivity for BCRP over P-gp (P-gp transporter; conclusion from Table 2): selective BCRP inhibitor
- IC50 (CYP1A2): 15.4 µM
- IC50 (CYP2D6): > 30 µM
- IC50 (CYP2C9): > 30 µM
- IC50 (BCRP efflux transporter; [2]): 0.6 µM
- IC50 (CYP2C19): 18.5 µM
- IC50 at 12 min (CYP3A4/5; pH 7.4, probe midazolam): > 30 µM
Compound: COc1ccc2c3c([nH]c2c1)[C@H](CC(C)C)N1C(=O)[C@H](C)NC(=O)[C@@H]1C3 [Compound (I-1), (3S,6S,12aS)-6-isobutyl-9-methoxy-3-methyl-2,3,6,7,12,12a-hexahydropyrazino[1′,2′:1,6]pyrido[3,4-b]indole-1,4-dione]

- IC50 (BCRP efflux transporter; [2]): > 10 µM
Compound: COc1ccc2c3c([nH]c2c1)[C@H](CC(C)C)N1C(=O)[C@H](C)NC(=O)[C@H]1C3 [Compound 4, (3S,6S,12aR)-6-isobutyl-9-methoxy-3-methyl-2,3,6,7,12,12a-hexahydropyrazino[1′,2′:1,6]pyrido[3,4-b]indole-1,4-dione]

Source: US9695174B2, “Inhibitor of breast cancer resistance protein (BCRP)” (Millennium Pharmaceuticals, Inc., priority 2013, dated 2017)
